Positions of bridges follow the written chain, without caps; N, C: chain ends. Residues, ends and D or L forms follow the SMILES beside them.
Assay: Binding affinity against Opioid receptor delta 1 in guinea pig brain homogenate using [3H]- DPDPE as radioligand

Row | Compound | IC50
1 | CC[C@H](C)[C@H](NC(=O)[C@H](CCCNC(=N)N)NC(=O)[C@H](CCCNC(=N)N)NC(=O)[C@H](CC(C)C)NC(=O)[C@H](Cc1ccccc1)NC(=O)CNC(=O)CNC(=O)[C@@H](N)Cc1ccc(O)cc1)C(=O)N[C@@H](CCCNC(=N)N)C(=O)N1CCC[C@H]1C(=O)N[C@@H](CCCCN)C(=O)N[C@@H](CC(C)C)C(=O)N[C@@H](CCCCN)C(N)=O | 4.1 nM
2 | C[C@H]1NC(=O)[C@H](CCCNC(=N)N)NC(=O)[C@H](CCCNC(=N)N)NC(=O)[C@@H](NC(=O)[C@H](Cc2ccccc2)NC(=O)CNC(=O)CNC(=O)[C@@H](N)Cc2ccc(O)cc2)CSSC[C@@H](C(N)=O)NC(=O)[C@@H]2CCCN2C(=O)[C@H](CCCNC(=N)N)NC1=O | 19 nM
3 | CC(C)C[C@H](NC(=O)[C@H](Cc1ccccc1)NC(=O)CNC(=O)CNC(=O)[C@@H](N)Cc1ccc(O)cc1)C(=O)N[C@@H](CCCNC(=N)N)C(=O)N[C@@H](CCCNC(=N)N)C(=O)N[C@@H]1CSSC[C@H](C(N)=O)NC(=O)[C@H](CC(C)C)NC(=O)[C@H](CCCCN)NC(=O)[C@@H]2CCCN2C(=O)[C@H](CCCNC(=N)N)NC1=O | 14 nM
4 | CC(C)C[C@@H]1NC(=O)[C@H](CCCCN)NC(=O)[C@@H]2CCCN2C(=O)[C@H](CCCNC(=N)N)NC(=O)[C@@H](NC(=O)[C@H](CCCNC(=N)N)NC(=O)[C@H](CCCNC(=N)N)NC(=O)[C@H](CC(C)C)NC(=O)[C@H](Cc2ccccc2)NC(=O)CNC(=O)CNC(=O)[C@@H](N)Cc2ccc(O)cc2)CSSC[C@@H](C(N)=O)NC1=O | 4 nM
5 | CC[C@H](C)[C@H](NC(=O)[C@H](CCCNC(=N)N)NC(=O)[C@H](CCCNC(=N)N)NC(=O)[C@H](CC(C)C)NC(=O)[C@H](Cc1ccccc1)NC(=O)CNC(=O)CNC(=O)[C@@H](N)Cc1ccc(O)cc1)C(=O)N[C@@H](CCCNC(=N)N)C(=O)N1CCC[C@H]1C(=O)N[C@@H](CCCCN)C(N)=O | 7 nM
6 | CC(C)C[C@@H]1NC(=O)[C@H](CCCCN)NC(=O)[C@@H]2CCCN2C(=O)[C@H](CCCNC(=N)N)NC(=O)[C@H](NC(=O)[C@H](CCCNC(=N)N)NC(=O)[C@H](CCCNC(=N)N)NC(=O)[C@H](CC(C)C)NC(=O)[C@H](Cc2ccccc2)NC(=O)CNC(=O)CNC(=O)[C@@H](N)Cc2ccc(O)cc2)CSSC[C@@H](C(N)=O)NC1=O | 104 nM
7 | CC[C@H](C)[C@@H]1NC(=O)[C@H](CCCNC(=N)N)NC(=O)[C@H](CCCNC(=N)N)NC(=O)[C@@H](NC(=O)[C@H](Cc2ccccc2)NC(=O)CNC(=O)CNC(=O)[C@@H](N)Cc2ccc(O)cc2)CSSC[C@@H](C(N)=O)NC(=O)[C@@H]2CCCN2C(=O)[C@H](CCCNC(=N)N)NC1=O (H-YGGFCRRIRPC-NH2; disulfide 5-11) | 1.6 nM

Source: BindingDB's records for doi:10.1021/jm00169a007 (University of Arizona, 1990)
